Assay results as given in article PMC5369052, “Calcium regulation of the human mitochondrial ATP-Mg/Pi carrier SLC25A24 uses a locking pin mechanism” (Scientific Reports, 2017).

Legend:
[1] = biological target: T1, ∆1-191 APC1 (∆1-191_APC1) (Homo sapiens, UniProt Q6NUK1); test: counter-exchange of internal ADP with external […]-ATP in proteoliposomes; format: biochemical; settings: 2.5 mM internal ADP; 5 mM MgCl2 outside; pH 7.4, 20 °C
T1 construct: gene SLC25A24; carrier domain only, N-terminal truncation; His8-Factor Xa tag cut, primer adds TSED after IEGR; in liposomes
T1 sequence (Q6NUK1 191-477): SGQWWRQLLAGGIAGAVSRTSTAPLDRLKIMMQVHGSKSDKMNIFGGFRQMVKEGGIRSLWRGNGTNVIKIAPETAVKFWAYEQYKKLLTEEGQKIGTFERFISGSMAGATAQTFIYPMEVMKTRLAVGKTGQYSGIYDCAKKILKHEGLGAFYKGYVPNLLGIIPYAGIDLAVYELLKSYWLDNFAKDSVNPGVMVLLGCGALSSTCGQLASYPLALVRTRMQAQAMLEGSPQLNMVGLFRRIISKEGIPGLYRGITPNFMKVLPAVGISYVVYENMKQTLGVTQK

[2] = biological target: T1, ∆1-191 APC1 (∆1-191_APC1); test: […]-ATP uptake into proteoliposomes, initial rates; format: biochemical; settings: 1.5 μM external ATP exchanged for 2.5 mM internal ADP; 5 mM MgCl2 outside; pH 7.4, 20 °C; labelled compound
purified protein = substrate: Nc1ncnc2c1ncn2[C@@H]1O[C@H](COP(=O)(O)OP(=O)(O)OP(=O)(O)O)[C@@H](O)[C@H]1O; test: purified protein; format: biochemical, Homo sapiens; settings: 4 mM total external CaCl2 (calcium-activated state), 2.5 mM internal ATP, 20 mM Tris-HCl pH 7.4, 20 °C, labelled compound

## Nc1ncnc2c1ncn2[C@@H]1O[C@H](COP(=O)(O)OP(=O)(O)O)[C@@H](O)[C@H]1O [ADP]
[1]
  counter-exchange of internal ADP with external [14C]-ATP in proteoliposomes: hetero-exchange between ATP and ADP was monitored over a 15-minute time course

## Nc1ncnc2c1ncn2[C@@H]1O[C@H](COP(=O)(O)OP(=O)(O)OP(=O)(O)O)[C@@H](O)[C@H]1O [ATP]
[2]
  [14C]-ATP uptake into proteoliposomes, initial rates: uptake rate of ATP was highest in the presence of externally added magnesium

B1: full-length human mitochondrial ATP-Mg/Pi carrier isoform 1 (APC1; SCaMC1/SLC25A24) (Homo sapiens) (protein)
chain: MLRWLRDFVLPTAACQDAEQPTRYETLFQALDRNGDGVVDIGELQEGLRNLGIPLGQDAEEKIFTTGDVNKDGKLDFEEFMKYLKDHEKKMKLAFKSLDKNNDGKIEASEIVQSLQTLGLTISEQQAELILQSIDVDGTMTVDWNEWRDYFLFNPVTDIEEIIRFWKHSTGIDIGDSLTIPDEFTEDEKKSGQWWRQLLAGGIAGAVSRTSTAPLDRLKIMMQVHGSKSDKMNIFGGFRQMVKEGGIRSLWRGNGTNVIKIAPETAVKFWAYEQYKKLLTEEGQKIGTFERFISGSMAGATAQTFIYPMEVMKTRLAVGKTGQYSGIYDCAKKILKHEGLGAFYKGYVPNLLGIIPYAGIDLAVYELLKSYWLDNFAKDSVNPGVMVLLGCGALSSTCGQLASYPLALVRTRMQAQAMLEGSPQLNMVGLFRRIISKEGIPGLYRGITPNFMKVLPAVGISYVVYENMKQTLGVTQK
notes: full length, N-terminal His8 tag + Factor Xa site (IEGR), tag cut by factor Xa; codon-optimised, expressed in S. cerevisiae mitochondria; purified in LMNG, reconstituted in PC/cardiolipin liposomes
Purified protein
  Km: 29 ± 8 µM
